Measurements published in US9926264B2, “Phenylcarbamate derivatives as formyl peptide receptor modulators” (Allergan, Inc., priority 2013, dated 2018).

Target: T1, FPR2 (Homo sapiens, UniProt P25090)
T1 construct: expressed in transfected cells; host or cells: CHO-Gα16 cells
T1 sequence (P25090 1-351): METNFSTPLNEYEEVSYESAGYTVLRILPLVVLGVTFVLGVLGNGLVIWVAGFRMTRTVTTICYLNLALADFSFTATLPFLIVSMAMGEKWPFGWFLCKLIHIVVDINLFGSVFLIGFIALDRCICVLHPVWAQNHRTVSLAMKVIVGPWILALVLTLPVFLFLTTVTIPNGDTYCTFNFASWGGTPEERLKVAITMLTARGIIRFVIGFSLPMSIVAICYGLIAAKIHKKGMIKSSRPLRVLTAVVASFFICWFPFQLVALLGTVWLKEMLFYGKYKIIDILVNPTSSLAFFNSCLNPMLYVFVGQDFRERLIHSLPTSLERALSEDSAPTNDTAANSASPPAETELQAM
Assay: compound-induced calcium activity on FLIPR Tetra in CHO-Gα16 cells stably expressing FPR2
Assay type: cell-based
Conditions: for Emax: efficacy value in brackets after EC50, read-out: FPR2 Gα16-CHO (% eff); for EC50: tested 0.61 to 10,000 nM
Procedure: CHO-Gα16 cells stably expressing FPR2 were cultured in (F12, 10% FBS, 1% PSA, 400 μg/ml geneticin and 50 μg/ml hygromycin) and HEK-Gqi5 cells stable expressing FPR1 were cultured in (DMEM high glucose, 10% FBS, 1% PSA, 400 μg/ml geneticin and 50 μg/ml hygromycin). In general, the day before the experiment, 18,000 cells/well were plated in a 384-well clear bottom poly-D-lysine coated plate. The following day the screening compound-induced calcium activity was assayed on the FLIPR^Tetra. The drug plates were prepared in 384-well microplates using the EP3 and the MultiPROBE robotic liquid handling systems. Compounds were tested at concentrations ranging from 0.61 to 10,000 nM. Results are expressed as EC50 (nM) and % efficacy values.

| SMILES | Emax [%] | EC50 [nM] |
| --- | --- | --- |
| O=C(O)CNC(=O)[C@H](Cc1ccccc1)OC(=O)Nc1ccc(Br)cc1 [Compound 40, {[(2S)-2-({[(4-bromophenyl)amino]carbonyl}oxy)-3-phenylpropanoyl]amino}acetic acid] | 95 | 1.3 |
| CC(C)C[C@H](OC(=O)Nc1ccc(Br)cc1)C(=O)N(C)CC(=O)OC(C)(C)C [Compound 3, tert-Butyl {[(2S)-2-{[(4-Bromophenyl)carbamoyl]oxy}-4-methylpentanoyl](methyl)amino}acetate] | 101 | 109 |
| CCN(CC(=O)O)C(=O)[C@H](CC(C)C)OC(=O)Nc1ccc(Br)cc1 [Compound 24, {[(2S)-2-{[(4-Bromophenyl)carbamoyl]oxy}-4-methylpentanoyl](ethyl)amino}acetic acid] | 95 | 0.24 |
| CCCN(CC(=O)O)C(=O)[C@H](CC(C)C)OC(=O)Nc1ccc(Br)cc1 [Compound 22, {[(2S)-2-{[(4-Bromophenyl)carbamoyl]oxy}-4-methylpentanoyl](propyl)amino}acetic acid] | 91 | 0.44 |
| CC(C)C[C@H](OC(=O)Nc1ccc(Br)cc1)C(=O)NCC(=O)O [Compound 19, {[(2S)-2-{[(4-Bromophenyl)carbamoyl]oxy}-4-methylpentanoyl]amino}acetic acid] | 101 | 0.84 |
| CC(C)C[C@H](OC(=O)Nc1ccc(Br)cc1)C(=O)N(CC(=O)O)C(C)C [Compound 23, {[(2S)-2-{[(4-Bromophenyl)carbamoyl]oxy}-4-methylpentanoyl](propan-2-yl)amino}acetic acid] | 105 | 0.32 |
| CN(CC(=O)O)C(=O)[C@H](Cc1ccccc1)OC(=O)Nc1ccc(Br)cc1 [Compound 41, {[(2S)-2-({[(4-Bromophenyl)amino]carbonyl}oxy)-3-phenylpropanoyl](methyl)amino}acetic acid] | 98 | 0.41 |
| CC(C)C[C@H](OC(=O)Nc1ccc(Br)cc1)C(=O)N(C)Cc1nnn[nH]1 [Compound 16, (2S)-4-methyl-1-[methyl(1H-tetrazol-5-ylmethyl)amino]-1-oxopentan-2-yl (4-bromophenyl)carbamate] | 98 | 0.81 |
| CCN(CC(=O)OC(C)(C)C)C(=O)[C@H](CC(C)C)OC(=O)Nc1ccc(C(F)(F)F)cc1 [Compound 13, tert-Butyl {Ethyl[(2S)-4-methyl-2-({[4-(trifluoromethyl)phenyl]carbamoyl}oxy)pentanoyl]amino}acetate] | 99 | 16.6 |
| CC(C)(C)OC(=O)CNC(=O)[C@H](Cc1ccccc1)OC(=O)Nc1ccc(Br)cc1 [Compound 34, tert-Butyl {[(2S)-2-({[(4-bromophenyl)amino]carbonyl}oxy)-3-phenylpropanoyl]amino}acetate] | 103 | 106 |
| CC(C)C[C@H](OC(=O)Nc1ccc(Br)cc1)C(=O)NCc1nnn[nH]1 [Compound 14, (2S)-4-Methyl-1-oxo-1-[(1H-tetrazol-5-ylmethyl)amino]pentan-2-yl (4-bromophenyl)carbamate] | 101 | 1.3 |
| CC(C)C[C@H](OC(=O)Nc1ccc(C(F)(F)F)cc1)C(=O)NCc1nnn[nH]1 [Compound 15, (2S)-4-methyl-1-oxo-1-[(1H-tetrazol-5-ylmethyl)amino]pentan-2-yl [4-(trifluoromethyl)phenyl]carbamate] | 96 | 3.6 |
| CC(C)C[C@H](OC(=O)Nc1ccc(C(F)(F)F)cc1)C(=O)N(CC(=O)O)C(C)C [Compound 38, (Isopropyl{(2S)-4-methyl-2-[({[4-(trifluoromethyl)phenyl]amino}carbonyl)oxy]pentanoyl}amino)acetic acid] | 107 | 0.66 |
| CCN(CC(=O)OC(C)(C)C)C(=O)[C@H](CC(C)C)OC(=O)Nc1ccc(Br)cc1 [Compound 11, tert-Butyl {[(2S)-2-{[(4-Bromophenyl)carbamoyl]oxy}-4-methylpentanoyl](ethyl)amino}acetate] | 97 | 8 |
| CC(=O)OCCNC(=O)[C@H](CC(C)C)OC(=O)Nc1ccc(C(F)(F)F)cc1 [Compound 18, 2-{[(2S)-4-Methyl-2-({[4-(trifluoromethyl)phenyl]carbamoyl}oxy)pentanoyl]amino}ethyl acetate] | 89 | 195 |
| CCN(Cc1nnn[nH]1)C(=O)[C@H](CC(C)C)OC(=O)Nc1ccc(Br)cc1 [Compound 31, (1S)-1-{[ethyl(1H-tetrazol-5-ylmethyl)amino]carbonyl}-3-methylbutyl (4-bromophenyl)carbamate] | 95 | 0.3 |
